The numbers were not newly measured in PMC6167001 (ACS Omega, 2018), which cites them from elsewhere.

Each structure is given as a SMILES string.

For series [1], the system named is HIV-1 mutants bearing L76V. Particulars: inclusion of L76V in mutants bearing three other resistance mutations.
Series [2] deals with PRL76V (HIV-1 protease with mutation L76V).

For the compound `Cc1cccc(C)c1OCC(=O)N[C@@H](Cc1ccccc1)[C@@H](O)C[C@H](Cc1ccccc1)NC(=O)[C@H](C(C)C)N1CCCNC1=O` [Compound 2, lopinavir], in series [1], the “increase in resistance associated with L76V” value was “eightfold”.

With `COc1ccc(S(=O)(=O)N(C[C@H]2CCC(=O)N2)C[C@@H](O)[C@H](Cc2ccccc2)NC(=O)O[C@@H]2C[C@@H]3CCO[C@@H]3C2)cc1` [GRL-02031], in series [2], the “increase in inhibition constant (Ki) for PRL76V in comparison to PRWT” value was “twofold”.

Turning to `CC(C)(C)NC(=O)[C@@H]1C[C@@H]2CCCC[C@@H]2CN1C[C@@H](O)[C@H](Cc1ccccc1)NC(=O)[C@H](CC(N)=O)NC(=O)c1ccc2ccccc2n1` [Compound 6, saquinavir], the “increase in susceptibility associated with L76V” value in series [1] is “eightfold”.
